Consider 22 molecules from US20240217982A1, “KRAS INHIBITORS” (Bristol-Myers Squibb Company, priority 2021, published 2024).

Structures are written as SMILES.

Experiment [1] deals with T1, KRAS G12D (Homo sapiens (Human), UniProt P01116, G12D). The experiment can be described thus: KRAS G12D RAF Disruption Assay (HTRF). The format is biochemical. Conditions: recombinant GMPPNP-loaded KRAS G12D (5 nM), GST-RAF1 RBD (9 nM), HTRF signal. The procedure: Recombinant GMPPNP-loaded KRAS G12D (5 nM) was treated with compound at room temperature for 20 minutes in assay buffer (50 mM Tris pH 7.5, 100 mM NaCl, 1 mM MgCl2, 1 mM DTT, 100 ug/mL BSA).
T1 sequence (P01116-2 other isoform, or with tags, fused parts or gaps G12D): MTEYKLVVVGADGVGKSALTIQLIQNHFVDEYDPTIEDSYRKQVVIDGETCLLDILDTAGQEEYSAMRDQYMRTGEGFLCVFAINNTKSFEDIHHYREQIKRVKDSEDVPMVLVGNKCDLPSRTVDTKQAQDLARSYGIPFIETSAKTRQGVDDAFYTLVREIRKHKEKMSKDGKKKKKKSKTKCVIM

Experiment [2] has as its target T1, KRAS G12D. The experiment in a line: KRAS G12D Nucleotide Exchange Assay (HTRF). In kind it is biochemical. As to conditions: recombinant GDP-loaded KRAS G12D (20 nM), BIODIPY-labeled GDP (400 nM), recombinant SOS (10 nM), HTRF signal. As for the experimental part: Recombinant GDP-loaded KRAS G12D (20 nM) was treated with compound at room temperature for 20 minutes in assay buffer (10 mM Hepes pH 7.4, 150 mM NaCl, 5 mM MgCl2, 0.0025% Igepal-CA630, 0.05% BSA, 1 mM DTT, 0.5 nM SA-Tb). BIODIPY-labeled GDP (400 nM) and recombinant SOS (10 nM) were added, and the reaction was incubated for 30 minutes.
On the technique in general: TR-FRET usually uses a lanthanide donor and a delayed reading to cut background.

For `CCc1cccc2cc(O)cc(-c3c(Cl)cc4c(N5CC[C@H]6CC[C@@H](C5)N6)nc(OC[C@@]56CCCN5C[C@H](F)C6)nc4c3F)c12` (single isomer, unassigned) [Example 8-1], the “KRASG12D RAF Disruption Assay (IC50, µM)” value in experiment [1] is reported as 5.7 µM. Further, the “KRASG12D Nucleotide Exchange Assay (IC50, µM)” value in experiment [2] stood at 0.04 µM.

`CCc1cccc2cc(O)cc(-c3c(Cl)cc4c(N5CC[C@H]6CC[C@@H](C5)N6)nc(OC[C@@]56CCCN5C[C@H](F)C6)nc4c3F)c12` (single isomer, unassigned) [Example 8-2]: the “KRASG12D RAF Disruption Assay (IC50, µM)” value in experiment [1] was 19.6 µM. Moreover, in experiment [2], the “KRASG12D Nucleotide Exchange Assay (IC50, µM)” value is recorded as 1.3 µM.

For the molecule `CCc1cccc2cc(O)cc(-c3c(Cl)cc4c(N5CC[C@H]6CC[C@@H](C5)N6)nc(OC[C@]56CCCN5C[C@@H](F)C6)nc4c3F)c12` (single isomer, unassigned) [Example 8-3], the “KRASG12D RAF Disruption Assay (IC50, µM)” value in experiment [1] worked out at 17.3 µM. The “KRASG12D Nucleotide Exchange Assay (IC50, µM)” value in experiment [2] worked out at 0.07 µM.

As to `CCc1cccc2cc(O)cc(-c3c(Cl)cc4c(N5CC[C@H]6CC[C@@H](C5)N6)nc(OC[C@]56CCCN5C[C@@H](F)C6)nc4c3F)c12` (single isomer, unassigned) [Example 8-4], the “KRASG12D RAF Disruption Assay (IC50, µM)” value in experiment [1] is 37.8 µM. In experiment [2], the “KRASG12D Nucleotide Exchange Assay (IC50, µM)” value stood at 7.7 µM.

Take `Oc1cc(-c2c(Cl)cc3c(N4CC[C@H]5CC[C@@H](C4)N5)nc(OC[C@@]45CCCN4C[C@H](F)C5)nc3c2F)c2c(F)cccc2c1` (single isomer, unassigned) [Example 8-5]: the “KRASG12D RAF Disruption Assay (IC50, µM)” value in experiment [1] amounted to 0.07 µM.

For `Oc1cc(-c2c(Cl)cc3c(N4CC[C@H]5CC[C@@H](C4)N5)nc(OC[C@@]45CCCN4C[C@H](F)C5)nc3c2F)c2c(F)cccc2c1` (single isomer, unassigned) [Example 8-6], in experiment [1], the “KRASG12D RAF Disruption Assay (IC50, µM)” value is listed as 3.6 µM. In addition, the “KRASG12D Nucleotide Exchange Assay (IC50, µM)” value in experiment [2] was found to be 0.07 µM.

Consider `Oc1cc(-c2c(Cl)cc3c(N4CC[C@H]5CC[C@@H](C4)N5)nc(OC[C@@]45CCCN4C[C@H](F)C5)nc3c2F)c2ccccc2c1` (single isomer, unassigned) [Example 8-7], for which the “KRASG12D RAF Disruption Assay (IC50, µM)” value in experiment [1] is on record as 0.51 µM. The “KRASG12D Nucleotide Exchange Assay (IC50, µM)” value in experiment [2] is given as 0.006 µM.

For the molecule `Oc1cc(-c2c(Cl)cc3c(N4CC[C@H]5CC[C@@H](C4)N5)nc(OC[C@@]45CCCN4C[C@H](F)C5)nc3c2F)c2ccccc2c1` (single isomer, unassigned) [Example 8-8], the “KRASG12D RAF Disruption Assay (IC50, µM)” value in experiment [1] was 15.5 µM. The “KRASG12D Nucleotide Exchange Assay (IC50, µM)” value in experiment [2] is recorded as 0.3 µM.

Take `Oc1cc(-c2c(Cl)cc3c(N4CC[C@H]5CC[C@@H](C4)N5)nc(OC[C@]45CCCN4C[C@@H](F)C5)nc3c2F)c2ccccc2c1` (single isomer, unassigned) [Example 8-9]: in experiment [1], the “KRASG12D RAF Disruption Assay (IC50, µM)” value worked out at 0.7 µM. The “KRASG12D Nucleotide Exchange Assay (IC50, µM)” value in experiment [2] is given as 0.005 µM.

As to `Oc1cc(-c2c(Cl)cc3c(N4CC[C@H]5CC[C@@H](C4)N5)nc(OC[C@]45CCCN4C[C@@H](F)C5)nc3c2F)c2ccccc2c1` (single isomer, unassigned) [Example 8-10], the “KRASG12D RAF Disruption Assay (IC50, µM)” value in experiment [1] is listed as 14.2 µM. In addition, the “KRASG12D Nucleotide Exchange Assay (IC50, µM)” value in experiment [2] was determined as 0.50 µM.

In the case of `Cc1cc(N)nc(-c2c(Cl)cc3c(N4CC[C@H]5CC[C@@H](C4)N5)nc(OC[C@@]45CCCN4C[C@@H](OC(F)F)C5)nc3c2F)c1C(F)(F)F` (single isomer, unassigned) [Example 10-5], in experiment [1], the “KRASG12D RAF Disruption Assay (IC50, µM)” value worked out at 81 µM. In addition, the “KRASG12D Nucleotide Exchange Assay (IC50, µM)” value in experiment [2] was found to be 0.9 µM.

As for `Cc1cc(N)nc(-c2c(Cl)cc3c(N4CC[C@H]5CC[C@@H](C4)N5)nc(OC[C@@]45CCCN4C[C@@H](OC(F)F)C5)nc3c2F)c1C(F)(F)F` (single isomer, unassigned) [Example 10-6], the “KRASG12D RAF Disruption Assay (IC50, µM)” value in experiment [1] was above 100 µM. The “KRASG12D Nucleotide Exchange Assay (IC50, µM)” value in experiment [2] was 0.2 µM.

As to `CN1CCC[C@H]1COc1nc(N2C3CCNCC2CC3)c2cc(Cl)c(-c3cc(O)cc4ccccc34)c(F)c2n1` (stereo partly drawn) [Example 1-1, 4-(6-chloro-4-{3,9-diazabicyclo[4.2.1]nonan-9-yl}-8-fluoro-2-{[(2S)-1-methylpyrrolidin-2-yl]methoxy}quinazolin-7-yl)naphthalen-2-ol], the “KRASG12D RAF Disruption Assay (IC50, µM)” value in experiment [1] is 41.99 µM. The “KRASG12D Nucleotide Exchange Assay (IC50, µM)” value in experiment [2] amounted to 33.33 µM.

`CN1CCC[C@H]1COc1nc(N2CCN3CCC2CC3)c2cc(Cl)c(-c3cc(O)cc4ccccc34)c(F)c2n1` [Example 1-2, 4-(6-chloro-4-{1,4-diazabicyclo[3.2.2]nonan-4-yl}-8-fluoro-2-{[(2S)-1-methylpyrrolidin-2-yl]methoxy}quinazolin-7-yl)naphthalen-2-ol]: the “KRASG12D RAF Disruption Assay (IC50, µM)” value in experiment [1] is reported as above 100 µM. In experiment [2], the “KRASG12D Nucleotide Exchange Assay (IC50, µM)” value turned out to be 13.66 µM.

For `Cc1cc(N)nc(-c2c(Cl)cc3c(N4CCC5CCC(C4)N5)nc(OC[C@@H]4CCCN4C)nc3c2F)c1C(F)(F)F` (stereo partly drawn) [Example 2-1, 6-(6-chloro-4-{3,9-diazabicyclo[4.2.1]nonan-3-yl}-8-fluoro-2-{[(2S)-1-methylpyrrolidin-2-yl]methoxy}quinazolin-7-yl)-4-methyl-5-(trifluoromethyl)pyridin-2-amine], the “KRASG12D RAF Disruption Assay (IC50, µM)” value in experiment [1] was 6.19 µM. The “KRASG12D Nucleotide Exchange Assay (IC50, µM)” value in experiment [2] is given as 0.04 µM.

Consider `Cc1cc(N)nc(-c2c(Cl)cc3c(N4CC5CCC(C4)NC5)nc(OC[C@@H]4CCCN4C)nc3c2F)c1C(F)(F)F` (stereo partly drawn) [Example 2-2, 6-(6-chloro-4-{3,6-diazabicyclo[3.2.2]nonan-3-yl}-8-fluoro-2-{[(2S)-1-methylpyrrolidin-2-yl]methoxy}quinazolin-7-yl)-4-methyl-5-(trifluoromethyl)pyridin-2-amine], for which the “KRASG12D RAF Disruption Assay (IC50, µM)” value in experiment [1] is given as 10.88 µM. Also, in experiment [2], the “KRASG12D Nucleotide Exchange Assay (IC50, µM)” value is on record as 0.14 µM.

For the molecule `Cc1cc(N)nc(-c2c(Cl)cc3c(N4CC[C@H]5CC[C@@H](C4)N5)nc(OC[C@]45CCC[C@H]4N(C)CCC5)nc3c2F)c1C(F)(F)F` [Example 3, 6-(2-{[(4aS,7aR)-1-methyl-octahydro-1H-cyclopenta[b]pyridin-4a-yl]methoxy}-6-chloro-4-[(1S,6R)-3,9-diazabicyclo[4.2.1]nonan-3-yl]-8-fluoroquinazolin-7-yl)-4-methyl-5-(trifluoromethyl)pyridin-2-amine], in experiment [1], the “KRASG12D RAF Disruption Assay (IC50, µM)” value worked out at 0.05 µM. Moreover, in experiment [2], the “KRASG12D Nucleotide Exchange Assay (IC50, µM)” value was <0.002 µM.

In the case of `Cc1cc(N)nc(-c2c(Cl)cc3c(N4CC[C@H]5CC[C@@H](C4)N5)nc(OC[C@@]45CCCN4C[C@H](F)C5)nc3c2F)c1C(F)(F)F` [Example 4-1, 6-(2-{[(2R,7aS)-2-fluoro-hexahydro-1H-pyrrolizin-7a-yl]methoxy}-6-chloro-4-[(1S,6R)-3,9-diazabicyclo[4.2.1]nonan-3-yl]-8-fluoroquinazolin-7-yl)-4-methyl-5-(trifluoromethyl)pyridin-2-amine], the “KRASG12D RAF Disruption Assay (IC50, µM)” value in experiment [1] is recorded as 0.06 µM. Also, the “KRASG12D Nucleotide Exchange Assay (IC50, µM)” value in experiment [2] is 0.005 µM.

With `Cc1cc(N)nc(-c2c(Cl)cc3c(N4CC[C@H]5CC[C@@H](C4)N5)nc(OC[C@]45CCCN4C[C@@H](F)C5)nc3c2F)c1C(F)(F)F` [Example 4-2, 6-(2-{[(2S,7aR)-2-fluoro-hexahydro-1H-pyrrolizin-7a-yl]methoxy}-6-chloro-4-[(1S,6R)-3,9-diazabicyclo[4.2.1]nonan-3-yl]-8-fluoroquinazolin-7-yl)-4-methyl-5-(trifluoromethyl)pyridin-2-amine], the “KRASG12D RAF Disruption Assay (IC50, µM)” value in experiment [1] is 0.43 µM. Moreover, the “KRASG12D Nucleotide Exchange Assay (IC50, µM)” value in experiment [2] amounted to 0.006 µM.

For the molecule `Cc1cc(N)nc(-c2c(Cl)cc3c(N4CC[C@H]5CC[C@@H](C4)N5)nc(OC[C@]45CCCN4C[C@H](F)C5)nc3c2F)c1C(F)(F)F` [Example 4-3, 6-(2-{[(2R,7aR)-2-fluoro-hexahydro-1H-pyrrolizin-7a-yl]methoxy}-6-chloro-4-[(1S,6R)-3,9-diazabicyclo[4.2.1]nonan-3-yl]-8-fluoroquinazolin-7-yl)-4-methyl-5-(trifluoromethyl)pyridin-2-amine], the “KRASG12D RAF Disruption Assay (IC50, µM)” value in experiment [1] amounted to 0.52 µM. In addition, the “KRASG12D Nucleotide Exchange Assay (IC50, µM)” value in experiment [2] is on record as 0.02 µM.

`CO[C@@H]1C[C@@H](COc2nc(N3CC[C@H]4CC[C@@H](C3)N4)c3cc(Cl)c(-c4nc(N)cc(C)c4C(F)(F)F)c(F)c3n2)N(C)C1` [Example 4-4, 6-{6-chloro-4-[(1S,6R)-3,9-diazabicyclo[4.2.1]nonan-3-yl]-8-fluoro-2-{[(2S,4R)-4-methoxy-1-methylpyrrolidin-2-yl]methoxy}quinazolin-7-yl}-4-methyl-5-(trifluoromethyl)pyridin-2-amine]: in experiment [1], the “KRASG12D RAF Disruption Assay (IC50, µM)” value was 1.81 µM. Further, in experiment [2], the “KRASG12D Nucleotide Exchange Assay (IC50, µM)” value worked out at 0.010 µM.

With `Cc1cc(N)nc(-c2c(Cl)cc3c(N4CC[C@H]5CC[C@@H](C4)N5)nc(OC[C@@]45CCCN4C[C@@H](F)C5)nc3c2F)c1C(F)(F)F` [Example 5, 6-(2-{[(2S,7aS)-2-fluoro-hexahydro-1H-pyrrolizin-7a-yl]methoxy}-6-chloro-4-[(1S,6R)-3,9-diazabicyclo[4.2.1]nonan-3-yl]-8-fluoroquinazolin-7-yl)-4-methyl-5-(trifluoromethyl)pyridin-2-amine], the “KRASG12D RAF Disruption Assay (IC50, µM)” value in experiment [1] is 2.87 µM. Moreover, in experiment [2], the “KRASG12D Nucleotide Exchange Assay (IC50, µM)” value is on record as <0.002 µM.
